Laboratory results as given in patent publication US5344959A, “Tetrahydronaphthyl and cyclopropyl substituted 1,3-butadienes having retinoid-like activity” (Allergan, Inc., priority 1993, dated 1994).

System: ornithine decarboxylase (ODC)
Assay: not given
Settings: general statement, known; cited from earlier work
For `CCCCCCCCCCCCCC(=O)O[C@@H]1[C@@H](C)[C@@]2(O)[C@@H](C=C(CO)C[C@]3(O)C(=O)C(C)=C[C@@H]23)[C@@H]2C(C)(C)[C@]12OC(C)=O` [12-0-tetradecanoylphorbol-13-acetate], the “induction of ODC activity” value is listed as “induces”.

Same assay, conditions: general statement, literature; cited from earlier work
In the case of `CC1=C(/C=C/C(C)=C/C=C/C(C)=C/C(=O)O)C(C)(C)CCC1` [Retinoic acid], the “inhibition of induction of ODC activity by TPA” value is listed as “inhibits”.

System: ornithine decarboxylase (ODC)
Assay: inhibition of TPA induction of ornithine decarboxylase (ODC)
Assay type: in vivo
Settings: inhibition of TPA-induced ODC activity; Table 1
From the text: The retinoid-like activity of these compounds is confirmed through the classic measure of retinoic acid activity involving the effects of retinoic acid on ornithine decarboxylase. The original work on the correlation-between retinoic acid and decrease in cell proliferation was done by Verma & Boutwell, Cancer Research, 1977, 37,2196-2201. That reference discloses that ornithine decarboxylase (ODC) activity increased precedent to polyamine biosynthesis. It has been established elsewhere that increases in polyamine synthesis can be correlated or associated with cellular proliferation. Thus, if ODC activity could be inhibited, cell hyperproliferation could be modulated. Although all causes for ODC activity increases are unknown, it is known that 12-0-tetradecanoylphorbol-13-acetate (TPA) induces ODC activity. Retinoic acid inhibits this induction of ODC activity by TPA.
`CCOC(=O)[C@@H]1C[C@H]1/C=C/C=C(\C)c1ccc2c(c1)C(C)(C)CCC2(C)C` (relative stereo) [Compound 2, Ethyl trans 2-[4-methyl-4(5,6,7,8-tetrahyro-5,5,8,8-tetramethyl-2-naphthyl)E,E 1-3 butadienyl] 1-cyclopropane carboxylate] showed an IC80 of 2.1 nM. In the case of `C/C(=C\C=C\[C@H]1C[C@H]1C(=O)O)c1ccc2c(c1)C(C)(C)CCC2(C)C` (relative stereo) [Compound 4, Cis-2-[4-methyl-4-(5,5,8,8,-tetramethyl-5,6,7,8-tetrahydro-2-naphthyl)-(E),(E) 1-3-butadienyl]-1-cyclopropane carboxylic acid], the IC80 is reported as 35 nM. With `C/C(=C\C=C\[C@@H]1C[C@H]1C(=O)O)c1ccc2c(c1)C(C)(C)CCC2(C)C` (relative stereo) [Compound 3, Trans-2-[4-methyl-4-(5,5,8,8,-tetramethyl-5,6,7,8-tetrahydro-2-naphthyl)-(E),(E) 1-3-butadienyl]-1-cyclopropane carboxylic acid] the IC80 was 2.6 nM. Work on `C/C(=C\C=C\[C@H]1C[C@H]1C(=O)O)c1cc2c(cc1C)C(C)(C)CCC2(C)C` (relative stereo) [Compound 6, Cis-2-[4-methyl-4-(3,5,5,8,8,-pentamethyl-5,6,7,8-tetrahydro-2-naphthyl)-(E),(E) 1-3-butadienyl]-1-cyclopropane carboxylic acid] yielded an IC80 of 638 nM. Work on `CCOC(=O)[C@@H]1C[C@H]1/C=C/C=C(\C)c1cc2c(cc1C)C(C)(C)CCC2(C)C` (relative stereo) [Compound 7, Ethyl trans-2-[4-methyl-4-(3,5,5,8,8,-pentamethyl-5,6,7,8-tetrahydro-2-naphthyl)-(E),(E) 1-3-butadienyl]-1-cyclopropane carboxylate] yielded an IC80 of 250 nM. For `CCOC(=O)[C@@H]1C[C@@H]1/C=C/C=C(\C)c1cc2c(cc1C)C(C)(C)CCC2(C)C` (relative stereo) [Compound 5, Ethyl cis-2-[4-methyl-4-(3,5,5,8,8,-pentamethyl-5,6,7,8-tetrahydro-2-naphthyl)-(E),(E) 1-3-butadienyl]-1-cyclopropane carboxylate], the IC80 was > 300 nM. `CCOC(=O)[C@@H]1C[C@@H]1/C=C/C=C(\C)c1ccc2c(c1)C(C)(C)CCC2(C)C` (relative stereo) [Compound 1, Ethyl cis-2-[4-methyl-4-(5,5,8,8,-tetramethyl-5,6,7,8-tetrahydro-2-naphthyl)-(E),(E) 1-3-butadienyl]-1-cyclopropane carboxylate] gave an IC80 of 8.3 nM.
